Laboratory results: patent US6254898A, “Nutraceutical composition for protection against solar radiation” (Protective Factors, Inc., priority 2000, dated 2001)

Key:
[1] = target: T1, Trypsin Type III from bovine pancreas (Bos taurus, UniProt P00760); assay: Trypsin inhibitory activity (BAPNA substrate); assay type: biochemical; conditions: at the dilutions tested for the blend
T1 construct: purchased Sigma; host or cells: bovine pancreas
T1 sequence (P00760 24-246): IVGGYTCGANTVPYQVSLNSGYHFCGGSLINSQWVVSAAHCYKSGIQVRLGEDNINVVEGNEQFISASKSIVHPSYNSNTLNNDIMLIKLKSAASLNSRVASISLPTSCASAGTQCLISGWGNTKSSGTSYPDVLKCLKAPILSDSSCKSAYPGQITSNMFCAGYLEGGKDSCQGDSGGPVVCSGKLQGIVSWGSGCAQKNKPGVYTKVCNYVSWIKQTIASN
Experimental: Serine protease inhibitory activity was determined in vitro by measuring the trypsin inhibitory activity of the blend and its components. Trypsin inhibitory activity was determined by the spectrophotometric determination of the release of p-nitroaniline from a synthetic substrate N-α-benzoyl-DL-arginine-p-nitroanilide hydrochloride (BAPNA) (Parellada, J. and Guinea, M., J. Nat. Prod., 58: 823-829, 1995; Geiger, R. and Fritz, H., In Methods of Enzymatic Analysis, Bergmeyer, H. V., et al (Eds), Verlag-Chemie, Basel, Switzerland, Vol. V, p. 119-129, 1984).
Trypsin Type III from bovine pancreas, BAPNA, and p-nitroaniline were obtained from Sigma. The inventive blend and its components were supplied in a capsule containing: green tea extract, 250 mg; lutein, 15 mg; Se, 50 mcg; and lipoic acid, 50 mg. The capsule's contents were extracted in ethanol [0.5 g (contents of one capsule) in 5 ml ethanol and the components at concentrations incorporated in the blend in 5 ml ethanol].
Aliquots of the enzyme solution (0.25 ml of a 1060 units/ml solution in 0.05 M Tris buffer, pH 7.8) and the buffer (0.25 ml) with various concentrations of the test extracts and without extracts (reference solution) were pre-incubated at 37° C. for 10 min. Blank samples were prepared by inactivating the enzyme with 0.5 ml of 2 M acetic acid before incubation. The enzymatic reaction was started by adding to the reaction mixture 1.25 ml of the substrate solution (1 mM in 0.05 M Tris buffer, pH 7.8). The mixture was incubated for 10 min and the reaction was stopped by adding 0.5 ml of 2 M acetic acid. The p-nitroaniline released was measured using a spectrophotometer at 410 nm. The results are the means ±SD of triplicate measurements. The inhibitory activity is expressed as the inhibition ratio represented by the following formula: [formula]

[2] = DPPH radical reduction (cell-free spectrophotometric assay); assay type: biochemical; conditions: at the dilutions tested
Experimental: (§1) The cytotoxic effects of ultraviolet A irradiation on mammalian cells (e.g., skin fibroblasts) have been attributed largely to photoreactions that generate reactive oxygen species, such as superoxide and hydrogen peroxide. The free radical scavenging activity of the blend and its components was determined in vitro using spectrophotometric assays (Yen, G. C. and Duh, P. D., J. Agric. Food Chem., 42: 629-632, 1994; Facino, R. M., Carini, M., Aldini, G., Berti, F., and Rossoni, G., Planta Med., 65: 614-619, 1999). The superoxide scavenging activity was assessed in a non-enzymatic system. The reduction of the stable free radical DPPH (2,2-diphenyl-1-picrylhydrazyl radical), indicative of the neutralizing action upon the already formed free radicals, also was determined in a cell-free system. […]
(§2) The superoxide scavenging activity was determined in a superoxide generating system containing 20 μM of phenazine methosulfate, 156 μM of β-NADH, 50 mM of phosphate buffer, and the extracts at various levels. The reaction was initiated by adding nitroblue tetrazolium (25 μM) and the reduction was monitored using a spectrophotometer at 556 nm. […] The reduction in absorbence was measured using a spectrophotometer at 515 nm. […] The percent inhibition is expressed as the quenching ratio represented by the following formula: [formula]

[3] = tested on: fibroblast cell line BALB/3T3 clone A31; assay: UV protecting activity: viability of UVA-irradiated fibroblasts (MTT assay); assay type: cell-based, mouse; conditions: UVA-irradiated BALB/3T3 cells
Experimental: Exposure of skin to sunlight especially to ultraviolet A (320-380 nm) radiation has been reported to induce photochemical generation of reactive oxygen species, resulting in membrane lipid peroxidation, photodamage to DNA, and inactivation of fibroblasts. […] A mammalian fibroblast cell line was used to determine the UV-protective action of the blend and the components at a cellular level.
Dulbecco's Modified Eagle Medium (DMEM) with 4 mM L-glutamine and 110 mg/l sodium pyruvate, Dulbecco's phosphate buffered saline (DPBS) without calcium or magnesium, fetal bovine serum, trypsin-EDTA solution, 2-thiobarbituric acid, MTT, and trichloroacetic acid were obtained from Sigma. […] The capsule's contents were extracted in ethanol [0.5 g (contents of one capsule) in 5 ml ethanol and the components at concentrations incorporated in the blend in 5 ml ethanol]. The extracts were diluted using the culture medium or DPBS.
Cells were maintained in 250 ml Corning flasks having a 0.2 μ vented cap in 10 ml of DMEM supplemented with 10% fetal bovine serum. The cultures were incubated at 37° C. in a CO2 incubator with 90% air and 10% CO2. The cells were subcultured every 5 days.
Assays were performed in 35 mm Costar tissue culture plates. The cells were plated at a density of 90,000 cells per well in the growth medium and allowed to attach and grow for 48 hr. The medium was changed after 36 hr with fresh medium containing the extracts at different concentrations. After 12 hr of incubation with the test extracts, the cells were washed with DPBS to remove the original medium. One ml of DPBS with or without the test extracts was added to each dish. The cells were incubated for 1 hr before exposure to UV irradiation. Non-irradiated cells were used as the control. […] Biophys. […] The results are the means ±SD of triplicate measurements.

[4] = Superoxide scavenging activity in a non-enzymatic superoxide generating system; assay type: biochemical; conditions: at the dilutions tested
Experimental: as §1, §2

Row | Compound | trypsin: activity of the components [1] | DPPH: activity among the four components [2] | UV protection: activity of the components [3] | range of concentrations at which the component was active in the UV protection assay [3] | superoxide: activity among the four components [4]
1 | CC1=C[C@H](O)CC(C)(C)[C@H]1/C=C/C(C)=C/C=C/C(C)=C/C=C/C=C(C)/C=C/C=C(C)/C=C/C1=C(C)C[C@@H](O)CC1(C)C [lutein] | active | most active | active | – | –
2 | C[Se]CC[C@H](N)C(=O)O [selenium, selenomethionine] | active | – | active | 0.001 to 1 µg/mL | –
3 | O=C(O)CCCCC1CCSS1 (stereo not shown) [lipoic acid, 6,8-thioctic acid] | active | – | active | 1 to 1000 µg/mL | most active
